In PubChem BioAssay (NCI):
Several values for one entry are separate records, joined by “and”; a condition that tells them apart may be missing. Equal values may be shown once.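 Step 1: Grow cells in 96-well plates. Step 2: Expose to compound for 48 hours at 5 concentrations. Step 3: Interpolate endpoints linearly; if unreached, use highest concentration. At the GI50, growth is halved. TGI is the concentration that stops growth completely.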

Tests used:
Experiment in all cases: NCI anticancer screen, dose series, 48 h
HL-60(TB) leukemia = system: HL-60(TB) leukemia
K-562 leukemia = system: K-562 leukemia
LOX IMVI melanoma = system: LOX IMVI melanoma
MOLT-4 leukemia = system: MOLT-4 leukemia
NCI-H226 lung = system: NCI-H226 lung
NCI-H460 lung = system: NCI-H460 lung
OVCAR-3 ovarian = system: OVCAR-3 ovarian
PC-3 prostate = system: PC-3 prostate
SK-MEL-2 melanoma = system: SK-MEL-2 melanoma
SK-MEL-28 melanoma = system: SK-MEL-28 melanoma

Compound	GI50 (HL-60(TB) leukemia)	TGI (HL-60(TB) leukemia)	GI50 (K-562 leukemia)	TGI (K-562 leukemia)	GI50 (LOX IMVI melanoma)	TGI (LOX IMVI melanoma)	GI50 (MOLT-4 leukemia)	TGI (MOLT-4 leukemia)	GI50 (NCI-H226 lung)	TGI (NCI-H226 lung)	GI50 (NCI-H460 lung)	TGI (NCI-H460 lung)	GI50 (OVCAR-3 ovarian)	TGI (OVCAR-3 ovarian)	GI50 (PC-3 prostate)	TGI (PC-3 prostate)	GI50 (SK-MEL-2 melanoma)	TGI (SK-MEL-2 melanoma)	GI50 (SK-MEL-28 melanoma)	TGI (SK-MEL-28 melanoma)
O=C1CSC(=S)N1Cc1cccnc1	7.27 µM	49 µM	3.75 µM	> 100 µM	2.58 µM	12.5 µM	11.6 µM	> 100 µM	42.3 µM	> 100 µM	18.4 µM	48.7 µM	3.39 µM	12.1 µM	16.2 µM	> 100 µM	4.21 µM	16.5 µM	11.4 µM	27.3 µM
COc1cc(/C=C/C(=O)C(C(=O)/C=C/c2ccc(OC(=O)CCNc3nnc(C)s3)c(OC)c2)C(=O)CCNc2nnc(C)s2)ccc1OC(=O)CCNc1nnc(C)s1	1.77 µM	3.93 µM	2.23 µM	8.01 µM	1.89 µM	3.84 µM	1.64 µM	3.89 µM	2.64 µM	8.12 µM	2.2 µM	4.7 µM	2.4 µM	6.95 µM	2.85 µM	15.4 µM	2.85 µM	12.5 µM	1.75 µM	4.02 µM
CNc1cccnc1/C=N/NC(N)=S	–	> 6.25 µM	–	> 10 µM	–	> 10 µM	–	> 10 µM	–	> 10 µM	–	> 10 µM	–	> 8.6 µM	–	> 10 µM	–	> 10 µM	–	> 10 µM
Nc1nc(Cl)c(N=Nc2ccc(Cl)cc2)c(NCC2(CO)CC(OCc3ccccc3)C2)n1 (centres undefined)	3.09 µM	29 µM and > 100 µM	2.76 µM	10.3 µM and > 100 µM	2.04 µM and 18.1 µM and 2.72 µM	20.7 µM and > 100 µM and 11.3 µM	3.39 µM and 9.61 µM and 3.56 µM	38.6 µM and > 100 µM and > 48.4 µM	6.92 µM and 18.9 µM and 6.68 µM	28.9 µM and > 100 µM and 24.9 µM	7.43 µM and 29.4 µM and 3.85 µM	86.1 µM and > 100 µM and 17.7 µM	5.88 µM and 19.2 µM and 6.07 µM	45 µM and > 100 µM and 21.5 µM	42.8 µM and 10.9 µM	77.5 µM and > 100 µM and 26.5 µM	17.3 µM and > 31.3 µM and 13.6 µM	61.4 µM and > 100 µM and 28 µM	–	> 100 µM and 33.4 µM
COc1ccc(Cn2cc3c(c2-c2ccc(O)cc2)CCc2cnoc2-3)cc1	0.221 µM	0.745 µM	0.13 µM	16.6 µM	0.713 µM	18.8 µM	0.507 µM	27.4 µM	4.6 µM	31.3 µM	0.321 µM	4.45 µM	0.221 µM	0.557 µM	0.653 µM	44.5 µM	0.379 µM	20.2 µM	0.616 µM	21.7 µM
CCN(CC)CCCNc1nc2ccccc2c2c(=O)c3cc(Cl)ccc3sc12	5.03 µM	23.2 µM	2.29 µM	5.51 µM	1.65 µM	3.08 µM	2.22 µM	4.92 µM	10.7 µM	25.1 µM	1.7 µM	3.36 µM	1.92 µM	4.15 µM	3.41 µM	16.7 µM	10.4 µM	27.5 µM	1.81 µM	3.34 µM
CC(C)=CC(O)C/C(C)=C/CC/C(C)=C/CCC1(C)C(CCCO)/C(=C(/C)C=O)CCC1(C)O (centres undefined)	–	43.7 µM	–	7.94 µM	–	> 100 µM	–	83.2 µM	–	> 100 µM	–	> 100 µM	–	> 100 µM	–	> 100 µM	–	> 100 µM	–	> 100 µM
O=C1/C(=C/c2ccc([N+](=O)[O-])o2)Oc2ccccc21	1.33 µM	3.89 µM	0.371 µM	1.97 µM	1.42 µM	2.93 µM	1.35 µM	3.7 µM	1.94 µM	4.98 µM	1.91 µM	4.09 µM	1.23 µM	2.62 µM	2.25 µM	7.12 µM	1.91 µM	3.73 µM	1.65 µM	3.2 µM
Cc1ccc(NSc2ccccc2[N+](=O)[O-])cc1	0.368 µM	14.5 µM	0.125 µM	22.9 µM	0.912 µM	18.5 µM	0.208 µM	> 62.7 µM	4.04 µM	20.8 µM	0.432 µM	11.1 µM	0.503 µM	7.4 µM	1.29 µM	16.6 µM	1.17 µM	21.9 µM	7.71 µM	26.4 µM
O=C1Nc2ccccc2/C1=C/c1ccccc1	–	43.5 µM	–	> 100 µM	–	27.6 µM	–	57.5 µM	–	37.4 µM	–	38.5 µM	–	33.7 µM	–	31.1 µM	–	28.5 µM	–	44.4 µM
C=C(C)[C@@H]1CC[C@]2(C(=O)O)CC[C@]3(C)[C@H](CC[C@@H]4[C@@]5(C)C[C@@H](CC#Cc6ccc(Br)cc6)C(=O)C(C)(C)[C@@H]5CC[C@]43C)[C@@H]12	22.4 µM	> 100 µM	15.6 µM	> 100 µM	5.65 µM	> 100 µM	4.44 µM	> 100 µM	24.2 µM	> 100 µM	5.71 µM	> 100 µM	4.73 µM	> 100 µM	3.31 µM	15.2 µM	2.58 µM	9.48 µM	2.62 µM	8.25 µM
COc1cc2c3c(n(CCCNC(=O)OCC4c5ccccc5-c5ccccc54)c(=O)c2cc1OC)-c1cc2c(cc1C3=O)OCO2	> 81.2 µM	> 100 µM	> 79.4 µM	> 100 µM	1.48 µM	> 37.1 µM	8.07 µM	> 34.6 µM	> 100 µM	> 100 µM	2.57 µM	> 100 µM	> 100 µM	> 100 µM	> 100 µM	> 100 µM	45.5 µM	> 100 µM	> 100 µM	> 100 µM
COc1cc(OC)c2cc(C(=O)O)c(=O)oc2c1	> 100 µM	> 100 µM	> 100 µM	> 100 µM	> 100 µM	> 100 µM	> 100 µM	> 100 µM	> 100 µM	> 100 µM	> 100 µM	> 100 µM	> 100 µM	> 100 µM	> 100 µM	> 100 µM	> 35.6 µM	> 53.8 µM	> 29.5 µM	> 100 µM
